Test results: US6727245B2, “Heterobicyclic derivatives” (Fujisawa Pharmaceutical Co., Ltd., priority 1994, dated 2004)

SMILES | melting point
CC(=O)c1cn(-c2cccc(-n3c(=O)c(Cc4cccnc4)nc4cccnc43)c2)c2ccccc12 [Example 45(17), 4-[3-(3-Acetylindol-1-yl)phenyl]-2-(3-pyridylmethyl)--3-oxo-3,4-dihydropyrido[2,3-b]pyrazine] | 153 to 156 °C
O=c1c(Cc2cccnc2)nc2cccnc2n1-c1cccc(-n2ccc3ccccc32)c1 [Example 45(18), 4-[3-(1-Indolyl)phenyl]-2-(3-pyridylmethyl)-3-oxo-3,4-dihydropyrido[2,3-b]pyrazine] | 166 to 168 °C
O=c1c(Cc2cccnc2)nc2cccnc2n1-c1cccc(-c2cccc3ccccc23)c1 [Example 45(19), 4-[3-(1-Naphthyl)phenyl]-2-(3-pyridylmethyl)-3-oxo-3,4-dihydropyrido[2,3-b]pyrazine] | 162 to 165 °C
Nc1cccc(-n2c(=O)c(Cc3cccnc3)nc3cccnc32)c1 [Example 46, 4-(3-aminophenyl)-2-(3-pyridylmethyl)-3-oxo-3,4-dihydropyrido[2,3-b]pyrazine] | 168 to 170 °C
Nc1ccc(F)c(-n2c(=O)c(Cc3cccnc3)nc3cccnc32)c1 [Example 47, 4-(5-Amino-2-fluorophenyl)-2-(3-pyridylmethyl)-3-oxo-3,4-dihydropyrido[2,3-b]pyrazine] | 177 to 179 °C
O=C(Nc1ccc(F)c(-n2c(=O)c(Cc3cccnc3)nc3cccnc32)c1)Nc1ccccc1F [Example 50(1), 4-[2-Fluoro-5-[3-(2-fluorophenyl)ureido]phenyl]-2-(3-pyridylmethyl)-3-oxo-3,4-dihydropyrido[2,3-b]pyrazine] | 146 to 149 °C
COc1ccccc1NC(=O)Nc1ccc(F)c(-n2c(=O)c(Cc3cccnc3)nc3cccnc32)c1 [Example 50(2), 4-[2-Fluoro-5-[3-(2-methoxyphenyl)ureido]phenyl]-2-(3-pyridylmethyl)-3-oxo-3,4-dihydropyrido[2,3-b]pyrazine] | 152 to 155 °C
O=C(Nc1cccc(-n2c(=O)c(Cc3cccnc3)nc3cccnc32)c1)Nc1ccccc1[N+](=O)[O-] [Example 50(3), 4-[3-[3-(2-Nitrophenyl)ureido]phenyl]-2-(3-pyridylmethyl)-3-oxo-3,4-dihydropyrido[2,3-b]pyrazine] | 188 to 189 °C
COc1ccccc1NC(=O)Nc1cccc(-n2c(=O)c(Cc3cccnc3)nc3cccnc32)c1 [Example 50(4), 4-[3-[3-(2-Methoxyphenyl)ureido]phenyl]-2-(3-pyridylmethyl)-3-oxo-3,4-dihydropyrido[2,3-b]pyrazine] | 163 to 169 °C
COc1ccc2cc(-c3cccc(-n4c(=O)c(Cc5cccnc5)nc5cccnc54)c3)ccc2c1 [Example 54(24), 4-[3-(6-Methoxy-2-naphthyl)phenyl]-2-(3-pyridylmethyl)-3-oxo-3,4-dihydropyrido[2,3-b]pyrazine] | 228 to 231 °C
COC(=O)c1ccc2c(ccn2-c2cccc(-n3c(=O)c(Cc4cccnc4)nc4cccnc43)c2)c1 [Example 54(25), 4-[3-(5-Methoxycarbonylindol-1-yl)phenyl]-2-(3-pyridylmethyl)-3-oxo-3,4-dihydropyrido[2,3-b]pyrazine] | 193 to 197 °C
O=c1c(Cc2cccnc2)nc2cccnc2n1-c1cccc(-c2cnc3ccccc3c2)c1 [Example 54(26), 4-[3-(3-Quinolyl)phenyl]-2-(3-pyridylmethyl)-3-oxo-3,4-dihydropyrido[2,3-b]pyrazine] | 237 °C
COc1ccc(-c2cccc(-n3c(=O)c(Cc4cccnc4)nc4cccnc43)c2)cc1OC1CCCC1 [Example 54(27), 4-[3-(3-Cyclopentyloxy-4-methoxyphenyl)phenyl]-2-(3-pyridylmethyl)-3-oxo-3,4-dihydropyrido[2,3-b]pyrazine] | 109 to 111 °C
COC(=O)c1cccc(-c2cccc(-n3c(=O)c(Cc4cccnc4)nc4cccnc43)c2)c1 [Example 54(28), 4-[3-(3-Methoxycarbonylphenyl)phenyl]-2-(3-pyridylmethyl)-3-oxo-3,4-dihydropyrido[2,3-b]pyrazine] | 179 to 181 °C
COC(=O)/C=C/c1cccc(-n2c(=O)c(Cc3cccnc3)nc3cccnc32)c1 [Example 54(29), 4-[3-[ (E)-2-Methoxycarbonylvinyl]phenyl]-2-(3-pyridylmethyl)-3-oxo-3,4-dihydropyrido[2,3-b]pyrazine] | 180 to 181 °C
O=c1c(Cc2cccnc2)nc2cccnc2n1-c1cccc(-c2cncc3ccccc23)c1 [Example 54(30), 4-[3-(4-Isoquinolyl)phenyl]-2-(3-pyridylmethyl)-3-oxo-3,4-dihydropyrido[2,3-b]pyrazine] | 157 to 163 °C
CC(=O)Nc1cccc(-c2cccc(-n3c(=O)c(Cc4cccnc4)nc4cccnc43)c2)c1 [Example 54(31), 4-[3-(3-Acetamidophenyl)phenyl]-2-(3-pyridylmethyl)-3-oxo-3,4-dihydropyrido[2,3-b]pyrazine] | 188 to 194 °C

SMILES | melting point
O=c1c(Cc2ccccc2)nc2cccnc2n1-c1cccc(NS(=O)(=O)c2ccccc2)c1 [Example 68(13), 2-Benzyl-4-(3-phenylsulfonylaminophenyl)-3-oxo-3,4-dihydropyrido[2,3-b]pyrazine] | 199 to 211 °C
O=C(Nc1ccccc1)Nc1cccc(-n2c(=O)c(Cc3ccccc3)nc3ccc(Sc4ccccc4)nc32)c1 [Example 68(14), 2-Benzyl-6-phenylthio-4-[3-(3-phenylureido)phenyl]-3-oxo-3,4-dihydropyrido[2,3-b]pyrazine] | 183 to 185 °C
O=c1c(Cc2ccccc2)nc2cccnc2n1-c1cccc(-n2cccc2)c1 [Example 68(15), 2-Benzyl-4-[3-(pyrrol-1-yl)phenyl]-3-oxo-3,4-dihydropyrido[2,3-b]pyrazine] | 169 to 170 °C
O=c1c(Cc2ccc(O)cc2)nc2cccnc2n1-c1cccc(-n2cccc2)c1 [Example 68(16), 2-(4-Hydroxybenzyl)-4-[3-(pyrrol-1-yl)phenyl]-3-oxo-3,4-dihydropyrido[2,3-b]pyrazine] | 263 °C
COC(=O)c1cccn1-c1cccc(-n2c(=O)c(Cc3ccccc3)nc3cccnc32)c1 [Example 68(17), 2-Benzyl-4-[3-(2-methoxycarbonylpyrrol-1-yl)phenyl]-3-oxo-3,4-dihydropyrido[2,3-b]pyrazine] | 190 to 191 °C
CNC(=O)Nc1cccc(-c2cccc(-n3c(=O)c(Cc4cccnc4)nc4cccnc43)c2)c1 [Example 72, 4-[3-[3-(3-Methylureido)phenyl]phenyl]-2-(3-pyridylmethyl)-3-oxo-3,4-dihydropyrido[2,3-b]pyrazine] | 248 to 252 °C
CCNC(=O)Nc1cccc(-c2cccc(-n3c(=O)c(Cc4cccnc4)nc4cccnc43)c2)c1 [Example 73, 4-[3-[3-(3-Ethylureido)phenyl]phenyl]-2-(3-pyridylmethyl)-3-oxo-3,4-dihydropyrido[2,3-b]pyrazine] | 257 to 258 °C
O=C(Nc1ccccc1)Nc1cccc(-c2cccc(-n3c(=O)c(Cc4cccnc4)nc4cccnc43)c2)c1 [Example 74, 4-[3-[3-(3-Phenylureido)phenyl]phenyl]-2-(3-pyridylmethyl)-3-oxo-3,4-dihydropyrido[2,3-b]pyrazine] | 234 °C
Nc1cccc(-c2cccc(-n3c(=O)c(Cc4cccnc4)nc4cccnc43)c2)c1 [Example 75, 4-[3-(3-Aminophenyl)phenyl]-2-(3-pyridylmethyl)-3-oxo-3,4-dihydropyrido[2,3-b]pyrazine] | 202 to 204 °C
O=C(Nc1cccc(-c2cccc(-n3c(=O)c(Cc4cccnc4)nc4cccnc43)c2)c1)c1ccc2ccccc2c1 [Example 76(2), 4-[3-[3-(2-Naphthoylamino)phenyl]phenyl]-2-(3-pyridylmethyl)-3-oxo-3,4-dihydropyrido[2,3-b]pyrazine] | 202 to 210 °C
O=C(Nc1cccc(-c2cccc(-n3c(=O)c(Cc4cccnc4)nc4cccnc43)c2)c1)c1cc2ccccc2s1 [Example 76(3), 4-[3-[3-[(Benzo[b]thiophen-2-yl)carbonylamino]phenyl]phenyl]-2-(3-pyridylmethyl)-3-oxo-3,4-dihydropyrido[2,3-b]pyrazine] | 216 to 218 °C
O=C(Nc1cccc(-c2cccc(-n3c(=O)c(Cc4cccnc4)nc4cccnc43)c2)c1)c1cnc2ccccc2n1 [Example 76(4), 4-[3-[3-(2-Quinoxalinylcarbonylamino)phenyl]phenyl]-2-(3-pyridylmethyl)-3-oxo-3,4-dihydropyrido[2,3-b]pyrazine] | 206 to 209 °C
CCC(=O)Nc1cccc(-c2cccc(-n3c(=O)c(Cc4cccnc4)nc4cccnc43)c2)c1 [Example 76(5), 4-[3-(3-Propionylaminophenyl)phenyl]-2-(3-pyridylmethyl)-3-oxo-3,4-dihydropyrido[2,3-b]pyrazine] | 223 to 224 °C
O=C(/C=C/c1ccncc1)Nc1cccc(-c2cccc(-n3c(=O)c(Cc4cccnc4)nc4cccnc43)c2)c1 [Example 76(6), 4-[3-[3-[(E)-3-(4-Pyridyl)acryloylamino]phenyl]phenyl]-2-(3-pyridylmethyl)-3-oxo-3,4-dihydropyrido[2,3-b]pyrazine] | 185 to 191 °C
CCOC(=O)/C=C/C(=O)Nc1cccc(-c2cccc(-n3c(=O)c(Cc4cccnc4)nc4cccnc43)c2)c1 [Example 77(3), 4-[3-[3-[(E)-3-Ethoxycarbonylacryloylamino]phenyl]phenyl]-2-(3-pyridylmethyl)-3-oxo-3,4-dihydropyrido[2,3-b]pyrazine] | 130 to 160 °C (dec.)
O=C(O)c1ccccc1C(=O)Nc1cccc(-c2cccc(-n3c(=O)c(Cc4cccnc4)nc4cccnc43)c2)c1 [Example 81, 4-[3-[3-(2-carboxybenzoylamino)phenyl]phenyl]-2-(3-pyridylmethyl)-3-oxo-3,4-dihydropyrido[2,3-b]pyrazine] | 150 °C (dec.)
O=C(O)CCC(=O)Nc1cccc(-c2cccc(-n3c(=O)c(Cc4cccnc4)nc4cccnc43)c2)c1 [Example 82(1), 4-[3-[3-(3-Carboxypropanoylamino)phenyl]phenyl]-2-(3-pyridylmethyl)-3-oxo-3,4-dihydropyrido[2,3-b]pyrazine] | 193 to 199 °C
